From US8188148B2, “Substituted 1,3-diphenylpropane derivatives, preparations and uses thereof” (Genfit, priority 2006, dated 2012) come the findings set out here.

The subject of assay [1] is PPARs target genes (PDK4, ApoCIII). In words: Hepatic gene expression by quantitative RT-PCR in C57BI6 mouse. Conditions: C57BI6 mouse, 3, 10, and 30 mpk, 14 days, normalized to 36B4. It counts as in vivo. The protocol: The effectiveness of the compounds according to the invention is also evaluated by measuring, in hepatic tissue, the expression of the genes involved in lipid metabolism. Each level of gene expression is normalized regarding the expression level of the reference gene 36B4. The induction factor is then calculated. The higher the induction factor is, the more the compound promotes hepatic gene expression. […]
Total RNA was extracted from liver fragments by using a NucleoSpin® 96 RNA kit (Macherey Nagel, Hoerdt, France) according to the manufacturer's instructions. 1 μg of total RNA (quantified by spectrophotometry) was then reverse-transcripted into cDNA by means of a 1 hour reaction at 37° C. in a total volume of 20 μl containing a 1× buffer (Sigma), 1.5 mM of DTT, 0.18 mM of dNTPs (Promega), 200 ng of pdN6 (Amersham), 30 U of RNase inhibitor (Sigma), and 1 μl of MMLV-RT (Sigma).
The PCR quantitative experiments were carried out using the MyiQ Single-Color Real-Time PCR Detection System (Biorad, Marnes-la-Coquette, France) and were performed using the iQ SYBR Green Supermix kit according to the provider's recommendations, in 96-well plates in 5 μl of a diluted reverse transcription solution and at a hybridization temperature of 55° C. […]
The amount of fluorescence emitted is directly proportional to the amount of cDNA present at the beginning of the reaction and amplified during the PCR. […]

The subject of assay [2] is ApoE2/E2 mouse. Nature of the assay: In vivo evaluation on ApoE2/E2 mouse: body weight and plasma lipids. Particulars: E2/E2 mouse, 5, 10, and 50 mpk per os, 8 days, vs control. The protocol: The dyslipidemic E2/E2 mouse's body weight, rates of total cholesterol, triglycerides and of plasma free fatty acids are measured after 8 days of a per os treatment with the compounds according to the invention.
The murine model used is the ApoE2/E2 mouse, a transgenic mouse having the human apolipoprotein E isoform E2 (Sullivan P M et al., 1998). In human, this apolipoprotein, a constituent of low and very low density lipoproteins (LDL-VLDL), is present in three isoforms E2, E3, and E4. The E2 form presents a mutation affecting the amino acid of position 158, which considerably weakens the affinity of this protein for the receptors to LDL receptors. Accordingly, the VLDL clearance is nearly non-existent. An accumulation of low-density lipoproteins then occurs along with a mixed hyperlipidemia known as of type III (high cholesterol and triglycerides rates).
The ApoE2/E2 transgenic mice were kept on a 12 hour/12 hour light/dark cycle at a constant temperature of 20±3° C. After a one week acclimatization period, the mice were weighed and divided into groups of 6 animals selected so as to render uniform the distribution of their body weights and plasma lipid rates, determined before the experiment. The tested compounds were suspended in carboxymethylcellulose (Sigma C4888) and administered by intra-gastric tube feeding, once a day for 8 days at the chosen dosage. The animals had free access to food and water (standard diet). Taking of food and weight gain are recorded throughout the experiment. At the end of the experiment, the animals were anesthetized after a 4 hour fast, a blood sample was taken using (EDTA) anticoagulant, then the mice were weighed and euthanized. The plasma was prepared by centrifugation at 3000 rotations/minute for 20 minutes. The samples were kept at +4° C.
Plasma lipid concentrations (total cholesterol and triglycerides) are measured by enzymatic dosages (bioMérieux-Lyon-France) according to the provider's recommendations.
Plasma cholesterol and triglycerides rates are measured after 8 days of a per os treatment with the compounds according to the invention. These rates are compared with those obtained with control animals (not treated with compounds according to the invention).
Low-density lipoproteins (VLDL and LDL) are precipitated by Phosphotungstate. The precipitate is eliminated by centrifugation. HDL cholesterol present in the supernatant is measured by enzymatic dosages (bioMérieux-Lyon-France) in accordance with the provider's recommendations.

With `Cc1cc(CCC(=O)c2ccc(OC(F)(F)F)cc2)cc(C)c1OC(C)(C)C(=O)O` [Compound 1, 2-[2,6-dimethyl-4-[3-[4-(trifluoromethyloxy)phenyl]-3-oxo-propyl]phenoxy]-2-methyl-propanoic acid], in assay [1], the “hepatic expression of the gene coding for ApoCIII” value is “reduction” and the “hepatic expression of the gene coding for PDK4” value is “significant increase”. In assay [2], the body weight gain entry is “weight loss”, the “plasma HDL-cholesterol” value is “significantly increased”, the “plasma free fatty acids” value is “decreased very significantly” and the plasma total cholesterol result is recorded as “significantly reduced”. For the same molecule, the plasma triglycerides entry in assay [2] is “decreased very significantly”.
